Results taken from ChEMBL document CHEMBL3045535, “Evaluation of lufenuron as a chemosterilant against fruit flies of the genus Anastrepha (Diptera: Tephritidae)” (2010).
Active and inactive are the calls of the source. The rule behind the calls is not given here.

Experiments:
Anastrepha ludens [1] = assay: Reduction of fertility in 7 days old adult of Anastrepha ludens assessed as reduction of egg hatching at 0.1 mg/g treated with diet measured after 3 days oviposition; format: functional; set-up: scale not given: the % may be the effect or the level left
Anastrepha striata [2] = assay: Reduction of fertility in 7 days old adult of Anastrepha striata assessed as reduction of egg hatching at 0.5 mg/g treated with diet measured after 9 days oviposition; format: functional; set-up: scale not given: the % may be the effect or the level left
Anastrepha striata [3] = assay: Reduction of fertility in 7 days old adult of Anastrepha striata assessed as reduction of egg hatching at 30 mg/g treated with diet measured after 9 days oviposition; format: functional; set-up: scale not given: the % may be the effect or the level left
Anastrepha ludens [4] = assay: Reduction of fertility in 7 days old adult of Anastrepha ludens assessed as reduction of egg hatching at 30 mg/g treated with diet measured after 7 days oviposition; format: functional; set-up: scale not given: the % may be the effect or the level left
Anastrepha ludens [5] = assay: Reduction of fertility in 7 days old adult of Anastrepha ludens assessed as reduction of egg hatching at 0.5 mg/g treated with diet measured after 5 days oviposition; format: functional; set-up: scale not given: the % may be the effect or the level left
Anastrepha obliqua [6] = assay: Reduction of fertility in 7 days old adult of Anastrepha obliqua assessed as reduction of egg hatching at 5 mg/g treated with diet measured after 1 day oviposition; format: functional; set-up: scale not given: the % may be the effect or the level left
Anastrepha striata [7] = assay: Reduction of fertility in 7 days old adult of Anastrepha striata assessed as reduction of egg hatching at 5 mg/g treated with diet measured after 3 days oviposition; format: functional; set-up: scale not given: the % may be the effect or the level left
Anastrepha obliqua [8] = assay: Reduction of fertility in 7 days old adult of Anastrepha obliqua assessed as reduction of egg hatching at 5 mg/g treated with diet measured after 7 days oviposition; format: functional; set-up: scale not given: the % may be the effect or the level left
Anastrepha serpentina [9] = assay: Reduction of fertility in 7 days old adult of Anastrepha serpentina assessed as reduction of egg hatching at 0.1 mg/g treated with diet measured after 7 days oviposition; format: functional; set-up: scale not given: the % may be the effect or the level left
Anastrepha ludens [10] = assay: Reduction of fertility in 7 days old adult of Anastrepha ludens assessed as reduction of egg hatching at 1 mg/g treated with diet measured after 1 day oviposition; format: functional; set-up: scale not given: the % may be the effect or the level left
Anastrepha obliqua [11] = assay: Reduction of fertility in 7 days old adult of Anastrepha obliqua assessed as reduction of egg hatching at 1 mg/g treated with diet measured after 11 days oviposition; format: functional; set-up: scale not given: the % may be the effect or the level left
Anastrepha ludens [12] = assay: Reduction of fertility in 7 days old adult of Anastrepha ludens assessed as reduction of egg hatching at 5 mg/g treated with diet measured after 5 days oviposition; format: functional; set-up: scale not given: the % may be the effect or the level left
Anastrepha striata [13] = assay: Reduction of fertility in 7 days old adult of Anastrepha striata assessed as reduction of egg hatching at 0.1 mg/g treated with diet measured after 3 days oviposition; format: functional; set-up: scale not given: the % may be the effect or the level left
Anastrepha serpentina [14] = assay: Effect on fecundity in 7 days old adult female of Anastrepha serpentina at 30 mg/g treated with diet after 24 hr in presence of untreated adult male of Anastrepha serpentina; format: functional, organism-based
Anastrepha ludens [15] = assay: Reduction of fertility in 7 days old adult of Anastrepha ludens assessed as reduction of egg hatching at 0.5 mg/g treated with diet measured after 1 day oviposition; format: functional; set-up: scale not given: the % may be the effect or the level left
Anastrepha obliqua [16] = assay: Effect on fertility in 7 days old adult male of Anastrepha obliqua at 30 mg/g treated with diet after 24 hr in presence of untreated adult female of Anastrepha obliqua; format: functional, organism-based
Anastrepha serpentina [17] = assay: Reduction of fertility in 7 days old adult of Anastrepha serpentina assessed as reduction of egg hatching at 10 mg/g treated with diet measured after 7 days oviposition; format: functional; set-up: scale not given: the % may be the effect or the level left
Anastrepha ludens [18] = assay: Reduction of fertility in 7 days old adult of Anastrepha ludens assessed as reduction of egg hatching at 5 mg/g treated with diet measured after 1 day oviposition; format: functional; set-up: scale not given: the % may be the effect or the level left
Anastrepha ludens [19] = assay: Reduction of fertility in 7 days old adult of Anastrepha ludens assessed as reduction of egg hatching at 1 mg/g treated with diet measured after 11 days oviposition; format: functional; set-up: scale not given: the % may be the effect or the level left
Anastrepha serpentina [20] = assay: Reduction of fertility in 7 days old adult of Anastrepha serpentina assessed as reduction of egg hatching at 5 mg/g treated with diet measured after 1 day oviposition; format: functional; set-up: scale not given: the % may be the effect or the level left
Anastrepha serpentina [21] = assay: Reduction of fertility in 7 days old adult of Anastrepha serpentina assessed as reduction of egg hatching at 1 mg/g treated with diet measured after 7 days oviposition; format: functional; set-up: scale not given: the % may be the effect or the level left
Anastrepha obliqua [22] = assay: Reduction of fertility in 7 days old adult of Anastrepha obliqua assessed as reduction of egg hatching at 1 mg/g treated with diet measured after 5 days oviposition; format: functional; set-up: scale not given: the % may be the effect or the level left
Anastrepha serpentina [23] = assay: Reduction of fertility in 7 days old adult of Anastrepha serpentina assessed as reduction of egg hatching at 0.5 mg/g treated with diet measured after 5 days oviposition; format: functional; set-up: scale not given: the % may be the effect or the level left
Anastrepha striata [24] = assay: Reduction of fertility in 7 days old adult of Anastrepha striata assessed as reduction of egg hatching at 1 mg/g treated with diet measured after 11 days oviposition; format: functional; set-up: scale not given: the % may be the effect or the level left
Anastrepha striata [25] = assay: Reduction of fertility in 7 days old adult of Anastrepha striata assessed as reduction of egg hatching at 1 mg/g treated with diet measured after 7 days oviposition; format: functional; set-up: scale not given: the % may be the effect or the level left
Anastrepha ludens [26] = assay: Effect on fecundity in 7 days old adult of Anastrepha ludens at 0.1 to 30 mg/g treated with diet after 24 hr; format: functional, organism-based
Anastrepha striata [27] = assay: Reduction of fertility in 7 days old adult of Anastrepha striata assessed as reduction of egg hatching at 0.1 mg/g treated with diet measured after 9 days oviposition; format: functional; set-up: scale not given: the % may be the effect or the level left
Anastrepha obliqua [28] = assay: Reduction of fertility in 7 days old adult of Anastrepha obliqua assessed as reduction of egg hatching at 5 mg/g treated with diet measured after 5 days oviposition; format: functional; set-up: scale not given: the % may be the effect or the level left
Anastrepha striata [29] = assay: Effect on fertility in 7 days old adult female of Anastrepha striata at 30 mg/g treated with diet after 24 hr in presence of untreated adult male of Anastrepha striata; format: functional, organism-based
Anastrepha striata [30] = assay: Reduction of fertility in 7 days old adult of Anastrepha striata assessed as reduction of egg hatching at 5 mg/g treated with diet measured after 7 days oviposition; format: functional; set-up: scale not given: the % may be the effect or the level left
Anastrepha ludens [31] = assay: Reduction of fertility in 7 days old adult of Anastrepha ludens assessed as reduction of egg hatching at 5 mg/g treated with diet measured after 3 days oviposition; format: functional; set-up: scale not given: the % may be the effect or the level left
Anastrepha ludens [32] = assay: Effect on fecundity in 7 days old adult female of Anastrepha ludens at 30 mg/g treated with diet after 24 hr in presence of untreated adult male of Anastrepha ludens; format: functional, organism-based
Anastrepha ludens [33] = assay: Reduction of fertility in 7 days old adult of Anastrepha ludens assessed as reduction of egg hatching at 0.1 mg/g treated with diet measured after 11 days oviposition; format: functional; set-up: scale not given: the % may be the effect or the level left
Anastrepha serpentina [34] = assay: Reduction of fertility in 7 days old adult of Anastrepha serpentina assessed as reduction of egg hatching at 10 mg/g treated with diet measured after 1 day oviposition; format: functional; set-up: scale not given: the % may be the effect or the level left
Anastrepha striata [35] = assay: Effect on fecundity in 7 days old adult of Anastrepha striata at 0.1 to 30 mg/g treated with diet after 24 hr; format: functional, organism-based
Anastrepha striata [36] = assay: Reduction of fertility in 7 days old adult of Anastrepha striata assessed as reduction of egg hatching at 10 mg/g treated with diet measured after 3 days oviposition; format: functional; set-up: scale not given: the % may be the effect or the level left
Anastrepha serpentina [37] = assay: Reduction of fertility in 7 days old adult of Anastrepha serpentina assessed as reduction of egg hatching at 0.5 mg/g treated with diet measured after 9 days oviposition; format: functional; set-up: scale not given: the % may be the effect or the level left
Anastrepha obliqua [38] = assay: Reduction of fertility in 7 days old adult of Anastrepha obliqua assessed as reduction of egg hatching at 5 mg/g treated with diet measured after 3 days oviposition; format: functional; set-up: scale not given: the % may be the effect or the level left
Anastrepha ludens [39] = assay: Reduction of fertility in 7 days old adult of Anastrepha ludens assessed as reduction of egg hatching at 30 mg/g treated with diet measured after 5 days oviposition; format: functional; set-up: scale not given: the % may be the effect or the level left
Anastrepha obliqua [40] = assay: Reduction of fertility in 7 days old adult of Anastrepha obliqua assessed as reduction of egg hatching at 30 mg/g treated with diet measured after 9 days oviposition; format: functional; set-up: scale not given: the % may be the effect or the level left
Anastrepha obliqua [41] = assay: Reduction of fertility in 7 days old adult of Anastrepha obliqua assessed as reduction of egg hatching at 10 mg/g treated with diet measured after 3 days oviposition; format: functional; set-up: scale not given: the % may be the effect or the level left

O=C(NC(=O)c1c(F)cccc1F)Nc1cc(Cl)c(OC(F)(F)C(F)C(F)(F)F)cc1Cl (racemic) [LUFENURON]
Activity (Anastrepha ludens [1]): 18.7% | Activity (Anastrepha striata [2]): 40.7% | Activity (Anastrepha striata [3]): 7.3% | Activity (Anastrepha ludens [4]): 4% | Activity (Anastrepha ludens [5]): 10.7% | Activity (Anastrepha obliqua [6]): 1.3% | Activity (Anastrepha striata [7]): 4.7% | Activity (Anastrepha obliqua [8]): 0% | Activity (Anastrepha serpentina [9]): 96.7% | Activity (Anastrepha ludens [10]): 8% | Activity (Anastrepha obliqua [11]): 0.7% | Activity (Anastrepha ludens [12]): 20% | Activity (Anastrepha striata [13]): 80% | Activity (Anastrepha serpentina [14]): inactive | Activity (Anastrepha ludens [15]): 8.7% | Activity (Anastrepha obliqua [16]): inactive | Activity (Anastrepha serpentina [17]): 65.8% | Activity (Anastrepha ludens [18]): 19.3% | Activity (Anastrepha ludens [19]): 40% | Activity (Anastrepha serpentina [20]): 34.8% | Activity (Anastrepha serpentina [21]): 92.5% | Activity (Anastrepha obliqua [22]): 0% | Activity (Anastrepha serpentina [23]): 93.3% | Activity (Anastrepha striata [24]): 8.7% | Activity (Anastrepha striata [25]): 1.3% | Activity (Anastrepha ludens [26]): inactive | Activity (Anastrepha striata [27]): 70.7% | Activity (Anastrepha obliqua [28]): 0% | Activity (Anastrepha striata [29]): inactive | Activity (Anastrepha striata [30]): 0.7% | Activity (Anastrepha ludens [31]): 16% | Activity (Anastrepha ludens [32]): inactive | Activity (Anastrepha ludens [33]): 66.7% | Activity (Anastrepha serpentina [34]): 18.3% | Activity (Anastrepha striata [35]): Active | Activity (Anastrepha striata [36]): 10.7% | Activity (Anastrepha serpentina [37]): 88% | Activity (Anastrepha obliqua [38]): 2.7% | Activity (Anastrepha ludens [39]): 4% | Activity (Anastrepha obliqua [40]): 1.3% | Activity (Anastrepha obliqua [41]): 1.3%
